Measured values from patent US7119121B2, “3,3-diphenylpropylamines useful in therapy” (Pfizer Inc., priority 2003, dated 2006).

What was measured:
[1] = biological target: P450 CYP2D6 enzyme (Homo sapiens, UniProt P10635); experiment: Protection from CYP2D6 metabolism (microsome incubation, HPLC); format: in vitro ADME; conditions: approx. 10 μM [14C]-labeled compound, microsomes with CYP2D6 (20 pmol), 1 mM β-NADPH, pH 7.4, 37° C., 20 min
Method: [^14C]-labeled N,N-diisopropyl-3-(2-hydroxy-5-trifluoromethylphenyl)-3-phenylpropanamine is synthesized, following the general procedure of examples 1–9. Approximately 10 μM of the compound is incubated with microsomes containing P450 CYP2D6 enzyme (20 pmol) in 100 mM potassium phosphate buffer (pH 7.4) and 1 mM β-NADPH at 37° C. in a final volume of 250 μl for 20 min.
The incubations are analyzed for the parent drug and its metabolites by HPLC using standard procedures. The amount of each metabolite is calculated from the resulting radiochromatogram. The retention times of formed metabolites are compared with the retention times of synthesized reference standards, and the identity of the formed metabolites is further confirmed by electrospray ionization mass spectrometry.

[2] = biological target: T1, muscarinic receptor subtype M3 (Homo sapiens, UniProt P20309); experiment: In vitro muscarinic receptor binding assay ([3H]NMS competition, SPA); conditions: cloned human receptors in CHO cell membranes, [3H]N-methylscopolamine, average of four determinations
T1 construct: purchased Receptor Biology division of Perkin Elmer Life Sciences (Beltsville, Md.)
Method: (§1) Affinities of test compounds for muscarinic receptor subtypes M1–M4 were determined. Competition radioligand binding experiments employed 11 drug concentrations run in duplicate. [^3H]N-methylscopolamine (NMS) was used as an antagonist radioligand, at the concentration equal to its equilibrium dissociation constant (Kd) for each receptor subtype. […] Total binding was determined with phosphate buffered saline (PBS). Cloned human receptors permanently expressed in CHO cells were the source of all binding sites. Membranes were purchased from Receptor Biology division of Perkin Elmer Life Sciences (Beltsville, Md.). The assays were run in scintillation proximity assay (SPA) format. Binding mixtures were made in flexible, 96-well, Wallac Micro-Beta plates by the addition of 11 μl of drug dilution, 11 μl of radioligand, and 178 μl of membrane/SPA bead suspension (100 mg of WGA-coated SPA beads, incubated with 5–15 μg protein/plate in 10 ml PBS for 30 min at room temperature, followed by low-speed centrifugation and resuspension in 2 ml PBS). After sealing and incubation at room temperature for 1 hour the plates were counted in a Wallac Micro-Beta scintillation counter. IC50 values were estimated by fitting the data to a one-site competition model: Y=T/(1+10^log(x)−log(IC50)), where Y is the specific CPM's bound at concentration X, and T is the specific CPM's bound in the absence of competitor. Inhibition constants (Ki) were calculated using the Cheng-Prushoff equation (Cheng, Y; Prushoff, W H, Biochem Pharmacol 22: 3099–3108, 1973). Curve fitting and Ki calculations were carried out using GraphPad Prism, version 3.0 (San Diego, Calif.).
(§2) Results are the average of four separate determinations. In vitro Binding

[3] = biological target: T2, muscarinic receptor subtype M4 (Homo sapiens, UniProt P08173); experiment: as above; conditions: cloned human receptors in CHO cell membranes, [3H]N-methylscopolamine, average of four determinations
T2 construct: purchased Receptor Biology division of Perkin Elmer Life Sciences (Beltsville, Md.)
T2 sequence (P08173 1-479): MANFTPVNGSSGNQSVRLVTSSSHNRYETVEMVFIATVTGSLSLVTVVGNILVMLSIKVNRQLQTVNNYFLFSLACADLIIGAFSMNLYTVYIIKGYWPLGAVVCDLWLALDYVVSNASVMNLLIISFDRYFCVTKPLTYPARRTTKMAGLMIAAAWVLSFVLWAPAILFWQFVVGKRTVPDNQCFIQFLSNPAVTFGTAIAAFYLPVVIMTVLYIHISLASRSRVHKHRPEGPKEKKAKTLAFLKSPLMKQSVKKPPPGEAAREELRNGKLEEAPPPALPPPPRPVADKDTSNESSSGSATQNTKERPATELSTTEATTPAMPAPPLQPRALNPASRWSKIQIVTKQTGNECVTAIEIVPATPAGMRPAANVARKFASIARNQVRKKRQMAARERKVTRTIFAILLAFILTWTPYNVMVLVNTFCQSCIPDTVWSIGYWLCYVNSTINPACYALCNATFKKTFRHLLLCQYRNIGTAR
Method: as §1, §2

[4] = biological target: T3, muscarinic receptor subtype M1 (Homo sapiens, UniProt P11229); experiment: as above; conditions: cloned human receptors in CHO cell membranes, [3H]N-methylscopolamine, average of four determinations
T3 construct: purchased Receptor Biology division of Perkin Elmer Life Sciences (Beltsville, Md.)
T3 sequence (P11229 1-460): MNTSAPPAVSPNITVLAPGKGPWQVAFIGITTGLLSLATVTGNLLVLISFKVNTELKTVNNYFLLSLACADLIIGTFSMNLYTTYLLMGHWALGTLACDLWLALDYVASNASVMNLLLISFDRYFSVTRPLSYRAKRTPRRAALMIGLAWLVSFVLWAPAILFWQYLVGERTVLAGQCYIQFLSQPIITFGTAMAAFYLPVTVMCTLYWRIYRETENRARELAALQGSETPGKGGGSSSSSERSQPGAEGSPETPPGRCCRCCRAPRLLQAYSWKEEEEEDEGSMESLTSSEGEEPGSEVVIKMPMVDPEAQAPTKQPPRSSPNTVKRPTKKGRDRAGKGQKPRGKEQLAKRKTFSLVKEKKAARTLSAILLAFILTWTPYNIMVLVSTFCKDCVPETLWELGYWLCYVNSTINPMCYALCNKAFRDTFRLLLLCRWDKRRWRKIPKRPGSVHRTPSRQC
Method: as §1, §2

[5] = biological target: T4, muscarinic receptor subtype M2 (Homo sapiens, UniProt P08172); experiment: as above; conditions: cloned human receptors in CHO cell membranes, [3H]N-methylscopolamine, average of four determinations
T4 construct: purchased Receptor Biology division of Perkin Elmer Life Sciences (Beltsville, Md.)
T4 sequence (P08172 1-466): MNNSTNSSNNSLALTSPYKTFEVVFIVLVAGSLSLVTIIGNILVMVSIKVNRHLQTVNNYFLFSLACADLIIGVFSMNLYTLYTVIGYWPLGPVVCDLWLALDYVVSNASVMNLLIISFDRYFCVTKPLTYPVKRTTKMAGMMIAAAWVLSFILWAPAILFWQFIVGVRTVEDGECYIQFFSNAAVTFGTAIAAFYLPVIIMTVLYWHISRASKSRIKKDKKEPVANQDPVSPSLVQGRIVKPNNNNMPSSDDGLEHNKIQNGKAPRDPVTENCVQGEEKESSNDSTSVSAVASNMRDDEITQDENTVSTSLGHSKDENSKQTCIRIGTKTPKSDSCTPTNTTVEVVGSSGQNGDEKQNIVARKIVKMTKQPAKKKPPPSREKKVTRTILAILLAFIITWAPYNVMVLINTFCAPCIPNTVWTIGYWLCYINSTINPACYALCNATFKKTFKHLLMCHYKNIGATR
Method: as §1, §2

Chain of P450 CYP2D6 enzyme (P10635 whole entry): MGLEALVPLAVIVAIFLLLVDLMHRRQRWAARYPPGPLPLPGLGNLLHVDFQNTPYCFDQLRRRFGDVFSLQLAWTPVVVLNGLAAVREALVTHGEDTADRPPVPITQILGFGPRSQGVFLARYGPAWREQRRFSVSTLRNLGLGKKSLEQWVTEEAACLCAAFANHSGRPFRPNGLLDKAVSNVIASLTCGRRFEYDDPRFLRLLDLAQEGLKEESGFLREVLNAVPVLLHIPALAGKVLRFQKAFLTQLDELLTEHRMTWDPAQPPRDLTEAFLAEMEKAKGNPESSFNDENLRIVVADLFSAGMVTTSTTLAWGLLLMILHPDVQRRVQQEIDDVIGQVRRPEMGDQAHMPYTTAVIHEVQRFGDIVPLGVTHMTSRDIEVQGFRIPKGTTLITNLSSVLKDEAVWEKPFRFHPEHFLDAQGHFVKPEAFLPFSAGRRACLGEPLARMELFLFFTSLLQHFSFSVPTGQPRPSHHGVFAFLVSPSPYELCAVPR
T1 sequence (P20309 whole entry): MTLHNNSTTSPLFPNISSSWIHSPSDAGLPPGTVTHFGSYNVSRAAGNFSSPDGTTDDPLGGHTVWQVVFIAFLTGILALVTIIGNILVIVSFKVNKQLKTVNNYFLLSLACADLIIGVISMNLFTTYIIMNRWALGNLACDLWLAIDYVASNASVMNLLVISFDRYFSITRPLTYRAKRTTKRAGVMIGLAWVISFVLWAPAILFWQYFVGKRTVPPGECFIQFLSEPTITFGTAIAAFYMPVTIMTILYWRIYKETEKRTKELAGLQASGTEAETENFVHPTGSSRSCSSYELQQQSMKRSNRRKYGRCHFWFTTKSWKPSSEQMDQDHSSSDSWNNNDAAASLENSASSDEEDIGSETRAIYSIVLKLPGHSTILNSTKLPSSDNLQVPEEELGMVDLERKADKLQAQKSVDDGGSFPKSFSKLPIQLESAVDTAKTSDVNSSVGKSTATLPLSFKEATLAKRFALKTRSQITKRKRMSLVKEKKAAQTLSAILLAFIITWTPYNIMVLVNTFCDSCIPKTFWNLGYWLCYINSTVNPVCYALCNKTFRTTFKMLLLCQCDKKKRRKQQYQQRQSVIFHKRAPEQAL

Row | Ki [2] [nM] | Ki [5] [nM] | SMILES | oxidation/hydroxylation by P450 CYP2D6 enzyme [1] | Ki [3] [nM] | Ki [4] [nM]
1 | 16 | 8.4 | CC(C)N(CCC(c1ccccc1)c1cc(C(F)(F)F)ccc1O)C(C)C (racemic) [N,N-Diisopropyl-3-(2-hydroxy-5-trifluoro-methylphenyl)-3-phenylpropanamine] | not readily hydroxylated at the 5-trifluoromethyl substituent | 6 | 3.9
2 |  |  | Cc1ccc(O)c([C@H](CCN(C(C)C)C(C)C)c2ccccc2)c1 [tolterodine, 2-[(1R)-3-(diisopropylamino)-1-phenylpropyl)-4-methylphenol, reference compound] |  | 0.64 | 0.79
